Values of other authors, collected in publication PMC11579209, “Population pharmacokinetics and exposure–response relationships of maribavir in transplant recipients with cytomegalovirus infection” (Journal of Pharmacokinetics and Pharmacodynamics, 2024).

Key:
[1] = design: method as in PMID 12654667, doi:10.1016/j.bbmt.2018.12.600; settings: metabolite of maribavir; cited from earlier work
CMV = tested on: CMV; design: method as in PMID 34674258; settings: through Week 24 or Week 14; cited from earlier work

Nc1nc2cc(Cl)c(Cl)cc2n1[C@H]1O[C@@H](CO)[C@H](O)[C@@H]1O [VP44469]
Pharmacological activity of metabolite [1]: pharmacologically inactive

COc1cccc(N2CCN(C3=Nc4c(F)cccc4[C@H](CC(=O)O)N3c3cc(C(F)(F)F)ccc3OC)CC2)c1 [letermovir]
Exposure dependency of clinically significant CMV infection (CS-CMVi) (CMV): no significant exposure dependencies
